The record followed here is patent publication US20200216906A1, “METHODS AND COMPOSITIONS RELATING TO THE DIAGNOSIS AND TREATMENT OF CANCER” (PRESIDENT AND FELLOWS OF HARVARD COLLEGE, priority 2015, published 2020).

Data set [1] relates to Panc02.13 cells expressing vector only (02.13-WT). The data set is described as follows: Kinetic cell growth assay, Panc02.13 cells expressing vector only. The data set is classed as cell-based, human. The following applies: Homo sapiens. Here is the method:
Panc02.13 cells were used to express YAPS6A (or vector controls) under sparse and dense cultures. Expression was confirmed by confocal microscopy (data not shown). Suppression of the Hippo pathway by expression of non-phospho, active form of YAP (YAPS6A) sensitized pancreatic cancer cells to gemcitabine and 5-FU (FIGS. 6 and 7). Apoptosis was measured by immunobloting with cleaved caspases 3/7 or PARP. Blots were also stained with anti-β-actin for loading control. The effect of Hippo pathway suppression on gemcitabine and 5-FU senstitization was maintained in 3D spheroid culture (FIG. 8). The effects of eleven cytotoxic drugs on the growth of Panc02.13 cells expressing vector only or YAPS6A construct grown under low or high densities were determined (Table 1).
(§1) The effect of gemcitabine on pancreatic cancer cell growth was studied using a kinetic cell growth assay. Pancreatic cancer cells were plated on 96-well plates (Essen ImageLock, Essen Instruments, MI, US) at varying densities (2-4×10^3 for low density or 15-20×10^3 for high density experiments). Small molecule inhibitors at different doses were added 24 hours after plating and cell confluence was monitored with Incucyte Live-Cell Imaging System and software (Essen Instruments). Confluence was observed every hour for 48-144h or until the control (DMSO only) samples reached 100% confluence.
as §1, with “Kinetic Cell growth assay. The” for “The”, “(2-4X103” for “(2-4×10^3”, “15-20X103” for “15-20×10^3”, “Incucyte™” for “Incucyte”

The subject of data set [2] is cancer cell lines harboring Hippo pathway genetic alterations. Kind of data set: 3D spheroid growth assay, cell lines with Hippo pathway alterations. The settings on record: cell lines from five diverse cancer types. The data set is classed as cell-based. From the text: Genetic defects that inhibit the Hippo pathway can induce tumors in model organisms. Such mutations occur in a broad range of human carcinomas, including lung, mesothelioma, colorectal, ovarian and liver cancers (Harvey et al., 2013) (Table S3). Mutations in NF2 and LATS2 are found in ˜30% of mesotheliomas and mutations in STK11 are found in 18% of lung cancers (Table S3). Previous studies have shown that aberrations in LATS2 and NF2 inactivate the Hippo pathway and overcome crowding-mediated YAP inhibition (Murakami et al., 2011). Despite the oncogenic effect of Hippo pathway mutations, the above studies would predict that the same inactivating mutations in the Hippo pathway genes (NF2, LATS2, STK11) could have an important effect, which can be exploited in chemotherapy: they might be hypersensitive to gemcitabine even in highly crowded conditions and increase the effectiveness of treatment. […] Furthermore, previous studies have shown that mutations in STK11 (LKB1) in lung cancer cell lines confer sensitivity to gemcitabine while ectopic expression of STK11 causes resistance (Xia et al., 2014; Yang, 2014). STK11 has been identified as an upstream kinase that negatively regulates YAP activity (Mohseni et al., 2014). […] Genetic aberrations in the Hippo pathway can be predictive biomarkers for response to gemcitabine.

Data set [3] relates to Panc02.13 cells expressing YAPS6A. The data set is described as follows: Gemcitabine and dFdU efflux by LC-MS/MS, Panc02.13 YAPS6A vs GFP. The data set is classed as in vitro ADME, human. The settings on record: less efflux in YAPS6A (Hippo-OFF), p<0.05. From the text: It was considered whether the Hippo pathway might affect the efflux of gemcitabine and/or its metabolites. To assess directly gemcitabine efflux in conditioned media of pancreatic cancer cells both radiolabeled gemcitabine and LC-MS/MS-based methods were used. Panc02.13 cells grown in highly crowded conditions (Hippo-ON) pumped out 2-3-fold more radiolabeled gemcitabine (counts per μg protein) compared with cells grown in less crowded conditions (Hippo-OFF) (FIG. 22A). Another pathway of inactivation and export is the enzymatic conversion of gemcitabine to a uracil derivative (2′,2′-difluorodeoxyuridine, dFdU) by deamination catalyzed by cytidine deaminase (CDA)(Veltkamp et al., 2008). The efflux of gemcitabine and its deaminated metabolite, dFdU was measured by LC-MS/MS (24) in Panc02.13 cells expressing YAPS6A or vector control after gemcitabine treatment (FIG. 22B).

The test system of the next data set is H2052 (LATS2) cells. The data set is described as follows: Gemcitabine and dFdU efflux by LC-MS/MS, H2052 cells. The following applies: higher in H2052 (LATS2). Format: in vitro ADME. From the text:
Are defects in the Hippo pathway the major cause of gemcitabine sensitivity? […] Restoring the levels of LATS2 in H2052 cells caused an increase in the mRNA and proteins levels of ABCG2 and CDA (FIGS. 23C, 36A-36M).

Data set [4] deals with patient-derived xenograft (PDX) models. The data set is described as follows: Patient-derived xenograft (PDX) models, tumor growth inhibition. The settings on record: 20 PDX models, p=0.01. Format: in vivo, mouse. From the text:
An alternative to an endogenous mouse models for capturing effects of the tumor environment are patient-derived xenograft (PDX) models. […] At the cellular level, PDX models also preserve the intra-tumoral heterogeneity, as well as the molecular characteristics of the original cancer, including copy number variants, single-nucleotide polymorphisms, and gene expression profiles (Choi et al., 2014; DeRose et al., 2011). […] When patient-derived xenograft PDX models were used to assess whether YAP activation sensitizes solid tumors to gemcitabine significant effects were found. The studies were performed in the following manner: Tumor fragments (around 64 mm^3) were implanted into the flanks of recipient mice and tumor dimensions recorded with digital calipers. Once tumor implants reached a volume of approximately 200 mm3, dosing with gemcitabine (or vehicle control) began. At the completion of the study completion, the percent tumor growth inhibition (% TGI) was calculated for gemcitabine (G) and the vehicle control (C) using initial (i) and final (f) tumor measurements by the formula: % TGI=[1−(Gf−Gi)/(Cf−Ci)]x100.
Patient-derived xenograft (PDX) models. PDX models were established by Champions Oncology (Baltimore, Md.) as described previously (Khor et al., 2015). Drug response to 20 PDX models was obtained from Champions TumorGraft® Database (available on the world wide web at database.championsoncology.com/).
Immunohistochemistry. Human primary tumor tissue slides were obtained from Champions Oncology (Baltimore, Md.). Immunohistochemistry using anti YAP1 antibody (Abcam Cat # ab52771) was performed as previously described (Shi et al., 1999). For negative controls, primary antibody was omitted. The intensity of YAP staining was assessed by an independent pathologist using a four-grade scale: “0” is negative. “0.5” is borderline staining with no significance. “1” is weak staining. “1.5” is weak staining with foci of moderate staining. “2” is moderate staining. […] YAP scoring index was calculated based on staining intensity * % of positive target cells.
(In general: Xenograft models place foreign cells or tissue in a host animal.)

Counter-ions that a name gives are not always drawn. Like-named read-outs stand apart in the source and are kept apart here.

Turning to `Nc1ccn([C@@H]2O[C@H](CO)[C@@H](O)C2(F)F)c(=O)n1` [Gemcitabine, Gemcitabine hydrochloride], the half-maximal effective concentration (EC50) was 1100 nM in data set [1] (high density, read-out: High density (EC50, nM) 02.13-WT); 1.6 nM in data set [1] (low density, read-out: Low density (EC50, nM) 02.13-WT); < 1 µM in data set [2]. Moreover, in data set [3], the “Gemcitabine effluxed, YAPS6A vs GFP expressing cells” value turned out to be 10 fold. Moreover, the “Effluxed gemcitabine in media, H2052 (LATS2) vs parental H2052 (LATS2−/−)” value in the data set on H2052 (LATS2) cells is listed as ~10 fold. Moreover, in data set [4], the “Difference in % TGI, high vs low YAP activity tumors” value was ~2 fold.

For orientation: EC50 means the concentration giving half of the maximal effect.
